# Calls of active or inactive are those of the source. The calls are words filed in the database; no cut-off is given here.
# Columns and labels:
# [1] = target: T1, Stimulator of interferon genes protein (Homo sapiens, UniProt Q86WV6); test: Agonist activity at human STING HAQ variant in human THP1-Blue ISG cells assessed as fold change in stimulation activity measured after 24 hrs incubation by QUANTI-Blue based microplate reader; type: cell-based
# [2] = target: T1, Stimulator of interferon genes protein; test: Agonist activity at STING R232 mutant (unknown origin) expressed in human THP1-Dual cells assessed as fold change in stimulation activity measured after 24 hrs incubation by QUANTI-Luc4 based microplate reader; type: cell-based
# [3] = target: T2, Stimulator of interferon genes protein (Mus musculus, UniProt Q3TBT3); test: Agonist activity at mouse STING expressed in human THP1-Dual cells assessed as fold change in stimulation activity measured after 24 hrs incubation by QUANTI-Luc4 based microplate reader; type: cell-based
# T2 sequence (Q3TBT3 whole entry): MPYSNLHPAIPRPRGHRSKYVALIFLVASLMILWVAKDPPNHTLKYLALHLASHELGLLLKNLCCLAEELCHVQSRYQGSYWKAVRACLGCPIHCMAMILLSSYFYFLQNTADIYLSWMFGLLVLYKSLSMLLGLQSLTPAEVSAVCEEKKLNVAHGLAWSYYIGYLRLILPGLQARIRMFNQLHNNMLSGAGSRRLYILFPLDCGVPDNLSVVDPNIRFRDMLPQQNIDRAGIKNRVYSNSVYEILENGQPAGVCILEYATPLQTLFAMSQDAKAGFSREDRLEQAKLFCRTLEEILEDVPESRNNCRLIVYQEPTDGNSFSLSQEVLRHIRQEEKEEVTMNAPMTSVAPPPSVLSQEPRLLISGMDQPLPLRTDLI
# THP-1 [4] = test: Induction of interferon response in STING knock out human THP-1 cells assessed as fold change in stimulation activity at 13 to 25 uM measured after 24 hrs incubation by QUANTI-Luc4 based microplate reader; type: functional, cell-based; conditions: dose 13-25 µM
# THP-1 [5] = test: Induction of interferon secretion in human THP-1 cells assessed as IFN-beta level at 13 uM measured after 24 hrs by ELISA; type: functional, cell-based
# THP1-Blue ISG = test: Induction of STING phosphorylation in human THP1-Blue ISG cells at 13 to 50 uM measured after 3 hrs by Western blot analysis; type: cell-based; conditions: filed as agonist, dose 13-50 µM
# [6] = target: T3, Interferon regulatory factor 3 (Homo sapiens) (UniProt Q14653); test: Induction of IRF3 phosphorylation in human THP1-Blue ISG cells at 13 to 50 uM measured after 3 hrs by Western blot analysis; type: cell-based; conditions: filed as agonist, dose 13-50 µM
# T3 sequence (whole entry): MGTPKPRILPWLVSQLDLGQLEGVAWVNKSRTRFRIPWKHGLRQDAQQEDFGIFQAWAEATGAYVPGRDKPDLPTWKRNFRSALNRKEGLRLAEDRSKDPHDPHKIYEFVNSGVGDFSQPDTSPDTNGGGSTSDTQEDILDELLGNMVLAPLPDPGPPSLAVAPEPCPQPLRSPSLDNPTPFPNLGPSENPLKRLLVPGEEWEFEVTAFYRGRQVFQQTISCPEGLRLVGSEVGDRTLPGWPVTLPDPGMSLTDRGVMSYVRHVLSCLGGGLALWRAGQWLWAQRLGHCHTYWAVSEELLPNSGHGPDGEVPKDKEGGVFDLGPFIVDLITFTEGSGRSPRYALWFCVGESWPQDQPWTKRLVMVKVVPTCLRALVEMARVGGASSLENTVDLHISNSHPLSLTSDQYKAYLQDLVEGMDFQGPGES
# MC-38 [7] = test: In vivo antitumor activity against mouse MC-38 cells inoculated in C57BL/6 mouse assessed as complete tumor regression (CR) at 60 mg/kg, po Q3D co-administered with anti-PD1 measured for 15 to 20 days; type: functional; conditions: time 15-20 day
# MC-38 [8] = test: In vivo antitumor activity against mouse MC-38 cells inoculated in C57BL/6 mouse assessed as increase in moue survival time at 60 mg/kg, po Q3D co-administered with anti-PD1 measured for 15 to 20 days; type: functional, organism-based; conditions: time 15-20 day
# MC-38 [9] = test: In vivo antitumor activity against mouse MC-38 cells inoculated in C57BL/6 mouse assessed as complete tumor regression (CR) at 60 mg/kg, po Q3D measured for 15 to 20 days; type: functional, organism-based; conditions: time 15-20 day
# MC-38 [10] = test: In vivo antitumor activity against mouse MC-38 cells inoculated in C57BL/6 mouse assessed as as increase in moue survival time at 60 mg/kg, po Q3D measured for 15 to 20 days; type: functional, organism-based; conditions: time 15-20 day
# MC-38 [11] = test: In vivo antitumor activity against mouse MC-38 cells inoculated in C57BL/6 mouse assessed as long-term immunological memory by measuring tumor recurrence at 60 mg/kg, po Q3D measured for 15 to 20 days followed by cured rechallenged with MC-38 cells after 84 days of first dose and measured for additional 74 days (total 157 days observation); type: functional, organism-based; conditions: time 157.0 day
# MC-38 [12] = test: In vivo antitumor activity against mouse MC-38 cells inoculated in C57BL/6 mouse assessed as complete tumor regression (CR) at 60 mg/kg, po two doses measured for 15 to 20 days relative to total number of mouse; type: functional; conditions: time 15-20 day
# MC-38 [13] = test: In vivo antitumor activity against mouse MC-38 cells inoculated in C57BL/6 mouse assessed as increase in IFN-gamma level in tumor at 60 mg/kg, po Q3D co-administered with anti-PD1 measured for 15 to 20 days; type: functional, organism-based; conditions: time 15-20 day
# MC-38 [14] = test: In vivo antitumor activity against mouse MC-38 cells inoculated in C57BL/6 mouse assessed as increase in IL-6 level in tumor at 60 mg/kg, po Q3D co-administered with anti-PD1 measured for 15 to 20 days; type: functional, organism-based; conditions: time 15-20 day
# MC-38 [15] = test: In vivo antitumor activity against mouse MC-38 cells inoculated in C57BL/6 mouse assessed as increase in CXCL10 level in tumor at 60 mg/kg, po Q3D co-administered with anti-PD1 measured for 15 to 20 days; type: functional, organism-based; conditions: time 15-20 day
# MC-38 [16] = test: In vivo antitumor activity against mouse MC-38 cells inoculated in C57BL/6 mouse assessed as increase in IFN-gamma level in serum at 60 mg/kg, po Q3D co-administered with anti-PD1 measured for 15 to 20 days; type: functional, organism-based; conditions: time 15-20 day
# MC-38 [17] = test: In vivo antitumor activity against mouse MC-38 cells inoculated in C57BL/6 mouse assessed as increase in IL-6 level in serum at 60 mg/kg, po Q3D co-administered with anti-PD1 measured for 15 to 20 days; type: functional, organism-based; conditions: time 15-20 day
# MC-38 [18] = test: In vivo antitumor activity against mouse MC-38 cells inoculated in C57BL/6 mouse assessed as increase in CXCL10 level in serum at 60 mg/kg, po Q3D co-administered with anti-PD1 measured for 15 to 20 days; type: functional, organism-based; conditions: time 15-20 day
# [19] = Metabolic stability in mouse liver microsomes assessed as half life at 10 uM measured up to 60 mins by LC-MS/MS analysis; type: ADME, Microsome
# [20] = Metabolic stability in human liver microsomes assessed as half life at 10 uM measured up to 60 mins by LC-MS/MS analysis; type: ADME, Microsome
# [21] = Stability of the compound in human plasma assessed as half life by LC-MS/MS analysis; type: ADME, cell-free
# [22] = Stability of the compound in mouse plasma assessed as half life by LC-MS/MS analysis; type: ADME, cell-free
# [23] = Chemical stability of the compound in MeOH/H2O solvent assessed as half life by LC-MS/MS analysis; type: physicochemical
# [24] = Cmax in mouse at 10 mg/kg, po by LC-MS/MS analysis; type: ADME, organism-based; conditions: in vivo
# [25] = Half life in mouse at 10 mg/kg, po by LC-MS/MS analysis; type: ADME, organism-based; conditions: in vivo
# [26] = Clearance in mouse at 10 mg/kg, po by LC-MS/MS analysis; type: ADME, organism-based; conditions: in vivo
# [27] = AUC in mouse at 10 mg/kg, po by LC-MS/MS analysis; type: ADME, organism-based; conditions: in vivo
# [28] = Oral bioavailability in mouse at 10 mg/kg by LC-MS/MS analysis; type: ADME, organism-based; conditions: in vivo
# [29] = Cmax in mouse at 5 mg/kg, iv by LC-MS/MS analysis; type: ADME, organism-based; conditions: in vivo
# [30] = Half life in mouse at 5 mg/kg, iv by LC-MS/MS analysis; type: ADME, organism-based; conditions: in vivo
# [31] = Clearance in mouse at 5 mg/kg, iv by LC-MS/MS analysis; type: ADME, organism-based; conditions: in vivo
# [32] = AUC in mouse at 5 mg/kg, iv by LC-MS/MS analysis; type: ADME, organism-based; conditions: in vivo
# T1 sequence (Q86WV6 whole entry, looked up, change not shown): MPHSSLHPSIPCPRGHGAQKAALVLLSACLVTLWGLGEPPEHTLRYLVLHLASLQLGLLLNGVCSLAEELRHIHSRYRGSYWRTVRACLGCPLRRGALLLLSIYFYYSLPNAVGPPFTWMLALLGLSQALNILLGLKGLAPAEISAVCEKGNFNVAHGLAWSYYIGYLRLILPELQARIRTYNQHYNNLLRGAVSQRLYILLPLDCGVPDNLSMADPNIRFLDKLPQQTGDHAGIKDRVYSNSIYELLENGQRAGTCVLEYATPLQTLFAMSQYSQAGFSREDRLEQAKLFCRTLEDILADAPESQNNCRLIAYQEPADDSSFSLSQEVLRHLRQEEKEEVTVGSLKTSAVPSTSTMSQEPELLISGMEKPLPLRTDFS
structure (smiles),measurement,setting,value
CC[C@H](CNC(=O)c1[se]c2cc(OC)c(OC)cc2c1F)C(=O)O,EC50,[1],3.3 µM
same,EC50,[2],9 µM
same,EC50,[3],9.3 µM
same,Activity,THP-1 [4],inactive
same,Activity,THP-1 [5],Active
same,Activity,THP1-Blue ISG,Active
same,Activity,[6],Active
same,Activity,MC-38 [7],Active; Compound Effect Significantly Exceeded Than Its Parent Compound Zsa-52 (Cr = 60%)
same,Activity,MC-38 [8],Active
same,Activity,MC-38 [9],Active
same,Activity,MC-38 [10],Active
same,Activity,MC-38 [11],Active
same,Activity,MC-38 [12],60%
same,Activity,MC-38 [13],Active
same,Activity,MC-38 [14],Active
same,Activity,MC-38 [15],Active
same,Activity,MC-38 [16],Active
same,Activity,MC-38 [17],Active
same,Activity,MC-38 [18],Active
same,half-life at 10 µM,[19],> 1 h
same,half-life at 10 µM,[20],> 1 h
same,half-life,[21],> 1 h
same,half-life,[22],> 1 h
same,half-life,[23],0.8 h
same,Cmax,[24],20.6 µg/mL
same,half-life,[25],1.1 h
same,CL/F,[26],0.417 L/h/kg
same,AUC,[27],23.8 µg·h/mL
same,bioavailability,[28],58%
same,Cmax,[29],48.4 µg/mL
same,half-life,[30],0.6 h
same,clearance,[31],0.242 L/h/kg
same,AUC,[32],20.6 µg·h/mL

# Reference: ChEMBL document CHEMBL6178018, “Design of an Oral STING Agonist through Intramolecular Hydrogen Bond Ring Mimicking to Achieve Complete Tumor Regression” (J Med Chem, 2025)
